Numbered stars: 1 amine (or outer) side, 2 acyl side, 3 side chain; on linkers, the order of the positions; unused ones are H or OH. Bridge positions count the residues as written; N and C are the ends. Square brackets hold non-standard residues; d marks the D form. Peptide text beside a SMILES is read from it. ξ: configuration not given here. X2 = NC(=O)[C@H](CSCc1cccc(C[*:1])c1)CC(=O)[C@@H]1CCCN1[*:2]; Phe(3,4,5-F3) = N[C@@H](Cc1cc(F)c(F)c(F)c1)C(=O)O; Phe(4-CF3) = N[C@@H](Cc1ccc(C(F)(F)F)cc1)C(=O)O; Phe(4-COOH) = N[C@@H](Cc1ccc(C(=O)O)cc1)C(=O)O; Trp(5-F) = N[C@@H](Cc1c[nH]c2ccc(F)cc12)C(=O)O; Phe(3-CN) = N#Cc1cccc(C[C@H](N)C(=O)O)c1; X1 = O=C(CCSCc1cccc(CSCCN[*:1])c1)[*:2]; Phe(4-F) = N[C@@H](Cc1ccc(F)cc1)C(=O)O; Pro(4,4-F2) = O=C(O)[C@@H]1CC(F)(F)CN1; 1Nal = N[C@@H](Cc1cccc2ccccc12)C(=O)O; 2Nal = N[C@@H](Cc1ccc2ccccc2c1)C(=O)O; mXylylene = c1cc(C[*:1])cc(C[*:2])c1; NMeY = CN[C@@H](Cc1ccc(O)cc1)C(=O)O; X5 = O=C(CN(CCCCC=[*:3])[*:1])[*:2]; X3 = O=C(CCSC/C=C/CSCCN[*:1])[*:2]; X4 = O=C(CN(CCCC=[*:3])[*:1])[*:2]; hhPhe = N[C@@H](CCCc1ccccc1)C(=O)O; NMeF = CN[C@@H](Cc1ccccc1)C(=O)O; aThr = C[C@H](O)[C@H](N)C(=O)O; αMeP = C[C@@]1(C(=O)O)CCCN1; Aze = O=C(O)[C@@H]1CCN1; Ahx = NCCCCCC(=O)O; ξP = O=C(O)C1CCCN1; Mpa = O=C(O)CCS
Legend:
[1] = target: human PCSK9 / human LDLR EGFa domain (Homo sapiens, UniProt Q8NBP7); assay: TR-FRET assay of inhibition of the PCSK9-LDLR protein-protein interaction; type: binding; details: 20 nM human PCSK9, 20 nM human LDLR EGFa domain, 2 hours room temperature
Method in brief: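 Inhibition of PCSK9 binding to the LDLR EGFa domain, each protein at 20 nM, detected by TR-FRET using streptavidin and anti-His donor/acceptor labels (5 nM). Two-hour room-temperature incubation in calcium-containing HEPES buffer.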

[2] = target: T1, PCSK9 (Homo sapiens, UniProt Q8NBP7); assay: PCSK9 Alexa FRET Standard assay (displacement of AlexaFluor647 tagged cyclic peptide Reagent A); type: binding; details: 0.5 nM PCSK9, 20 nM AF cyclic peptide Reagent A
T1 construct: biotin (biotinylated)
Procedure: A solution containing 1 nM biotinylated PCSK9+2.5 nM Lance Streptavidin Europium (Strep-Eu) was made in 50 mM HEPES pH 7.4, 0.15 M NaCl, 5 mM CaCl2), 0.01% BSA, and 0.01% Surfactant P20. A separate solution containing 40 nM of the AlexaFluor tagged cyclic peptide was made in the same buffer system. An Echo was used to transfer 0.750 ul of compound to an assay plate followed by the addition of 15 ul of PCSK9+Stept-Eu and 15 ul of AF peptide. The final assay volume was 30.750 ul containing 0.5 nM PCSK9, 1.25 nM Strep-Eu, and 20 nM AF cyclic peptide. The reaction was incubated at room temperature for at least two hours prior to fluorescence measurements using an Envision Multilabel Reader. IC50 values were determined by fitting data to a sigmoidal dose-response curve using nonlinear regression. Ki was then calculated from the IC50 and the KD of AF cyclic peptide. Counts (B-counts) of the europium-labeled PCSK9 were followed to observe if compounds were […]. A fall off of the B-counts likely indicated a false positive of inhibition. Data from this procedure was reported as “A=‘numerical value’ (nanomolar)”

Chain of human PCSK9 / human LDLR EGFa domain (Q8NBP7 153-692): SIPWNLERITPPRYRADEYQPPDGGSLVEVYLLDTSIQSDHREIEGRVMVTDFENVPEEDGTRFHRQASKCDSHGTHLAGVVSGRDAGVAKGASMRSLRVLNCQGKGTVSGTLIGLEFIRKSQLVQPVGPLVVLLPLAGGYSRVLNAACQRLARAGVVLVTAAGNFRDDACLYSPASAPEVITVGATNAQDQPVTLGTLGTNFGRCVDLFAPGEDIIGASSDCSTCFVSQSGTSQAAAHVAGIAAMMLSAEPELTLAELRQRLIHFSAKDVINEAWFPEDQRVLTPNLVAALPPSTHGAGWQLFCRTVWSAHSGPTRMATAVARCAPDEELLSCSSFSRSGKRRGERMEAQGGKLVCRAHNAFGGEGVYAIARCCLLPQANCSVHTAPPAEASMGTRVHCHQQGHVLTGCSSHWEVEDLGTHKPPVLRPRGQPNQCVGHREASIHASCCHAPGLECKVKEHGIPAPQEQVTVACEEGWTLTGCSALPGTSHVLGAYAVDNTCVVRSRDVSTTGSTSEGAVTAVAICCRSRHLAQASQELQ
T1 sequence (Q8NBP7 153-692): as above

Row | IC50 [1] [nM] | IC50 [2] [nM] | SMILES
1 | 100 to 1000 | 100 to 1000 | C[C@@H]1NC(=O)[C@@H]2CC(F)(F)CN2C(=O)[C@H](Cc2c[nH]c3ccc(F)cc23)NC(=O)[C@H](Cc2c[nH]c3ccc(F)cc23)NC(=O)[C@@H](C)NC(=O)[C@H](CCCCN)NC(=O)CCSCc2cccc(c2)CSC[C@@H](C(N)=O)NC(=O)[C@@H]2CCCN2C(=O)[C@H](Cc2ccc(O)cc2)NC1=O [Compound 036] ([Mpa]K[dA][Trp(5-F)][Trp(5-F)][Pro(4,4-F2)]AYPC-NH2; linker 1-10 via mXylylene)
2 | 1 to 100 | 1 to 100 | COc1ccc(C[C@@H]2NC(=O)[C@H](C)NC(=O)[C@@H]3CCCN3C(=O)[C@H](NC(=O)[C@H](Cc3c[nH]c4ccc(F)cc34)NC(C)=O)Cc3cn(c4ccc(F)cc34)Cc3cn(nn3)-c3cccc(c3)CSCCNC(=O)[C@]3(C)CCCN3C2=O)cc1 [Compound 101]
3 | 1 to 100 | 1 to 100 | C[C@@H]1NC(=O)[C@@H]2CCCN2C(=O)[C@H](Cc2ccc3ccccc3c2)NC(=O)[C@H](Cc2c[nH]c3ccc(F)cc23)NC(=O)CNC(=O)[C@H](CCCCN)NC(=O)CCSCc2cccc(c2)CSC[C@@H](C(N)=O)NC(=O)[C@@H]2CCCN2C(=O)[C@H](Cc2ccc(O)cc2)NC1=O [Compound 011] ([Mpa]KG[Trp(5-F)][2Nal]PAYPC-NH2; linker 1-10 via mXylylene)
4 | 1 to 100 | 1 to 100 | NCCCC[C@@H]1NC(=O)CCSCc2cccc(c2)CSCCNC(=O)C2CCCN2C(=O)[C@H](Cc2ccc(O)cc2)NC(=O)CNC(=O)[C@H]2CCCN2C(=O)[C@H](Cc2c[nH]c3ccc(F)cc23)NC(=O)[C@H](Cc2c[nH]c3ccc(F)cc23)NC(=O)CNC1=O (stereo partly drawn) [Compound 041] (cyclo(G[Trp(5-F)][Trp(5-F)][dP]GY[ξP][X1]K))
5 | 100 to 1000 | 1 to 100 | COc1ccc(C[C@@H]2NC(=O)[C@H](C)NC(=O)[C@@H]3CCC(=O)NCc4cccc(c4)C[C@H](NC(=O)CNC(C)=O)C(=O)N[C@@H](Cc4cn(c5ccc(F)cc45)Cc4cn(nn4)CC[C@@H](C(N)=O)NC(=O)[C@]4(C)CCCN4C2=O)C(=O)N3)cc1 [Compound 127]
6 | 100 to 1000 | 100 to 1000 | C[C@@H]1NC(=O)[C@@H]2CCCN2C(=O)[C@H](Cc2ccc(F)cc2)NC(=O)[C@H](Cc2c[nH]c3ccc(F)cc23)NC(=O)CNC(=O)[C@H](CCCCN)NC(=O)CCSCc2cccc(c2)CSC[C@@H](C(N)=O)NC(=O)[C@@H]2CCCN2C(=O)[C@H](Cc2ccc(O)cc2)NC1=O [Compound 006] ([Mpa]KG[Trp(5-F)][Phe(4-F)]PAYPC-NH2; linker 1-10 via mXylylene)
7 | 1 to 100 | 1 to 100 | C[C@@H]1NC(=O)[C@@H]2CCCN2C(=O)[C@H](Cc2cccc(C#N)c2)NC(=O)[C@H](Cc2c[nH]c3ccc(F)cc23)NC(=O)CNC(=O)[C@H](CCCCN)NC(=O)CCSCc2cccc(c2)CSC[C@@H](C(N)=O)NC(=O)[C@@H]2CCCN2C(=O)[C@H](Cc2ccc(O)cc2)NC1=O [Compound 015] ([Mpa]KG[Trp(5-F)][Phe(3-CN)]PAYPC-NH2; linker 1-10 via mXylylene)
8 | 100 to 1000 | 100 to 1000 | C[C@H](O)[C@@H]1NC(=O)CNC(=O)[C@H](CCCCN)NC(=O)CCSCc2cccc(c2)CSC[C@@H](C(N)=O)NC(=O)[C@]2(C)CCCN2C(=O)[C@H](Cc2ccc(O)cc2)NC(=O)[C@H](Cc2cnc[nH]2)NC(=O)[C@H](CC(=O)O)NC(=O)[C@H](Cc2c[nH]c3ccc(F)cc23)NC1=O [Compound 114] ([Mpa]KG[aThr][Trp(5-F)]DHY[αMeP]C-NH2; linker 1-10 via mXylylene)
9 | 1 to 100 | 1 to 100 | C[C@@H]1NC(=O)[C@@H]2CCCN2C(=O)[C@H](Cc2cc(F)c(F)c(F)c2)NC(=O)[C@H](Cc2c[nH]c3ccc(F)cc23)NC(=O)CNC(=O)[C@H](CCCCN)NC(=O)CCSCc2cccc(c2)CSC[C@@H](C(N)=O)NC(=O)[C@@H]2CCCN2C(=O)[C@H](Cc2ccc(O)cc2)NC1=O [Compound 014] ([Mpa]KG[Trp(5-F)][Phe(3,4,5-F3)]PAYPC-NH2; linker 1-10 via mXylylene)
10 | 1 to 100 | 1 to 100 | COc1ccc(C[C@@H]2NC(=O)[C@H](C)NC(=O)[C@@H]3CCCN3C(=O)[C@H](NC(=O)[C@H](Cc3c[nH]c4ccc(F)cc34)NC(=O)[C@@H](C)NC(C)=O)Cc3cn(c4ccc(F)cc34)Cc3cn(nn3)-c3cccc(c3)CSCCNC(=O)[C@]3(C)CCCN3C2=O)cc1 [Compound 102]
11 | 100 to 1000 | 1 to 100 | C[C@@H]1NC(=O)[C@@H]2CCN2C(=O)[C@H](Cc2c[nH]c3ccc(F)cc23)NC(=O)[C@H](Cc2c[nH]c3ccc(F)cc23)NC(=O)[C@@H](C)NC(=O)[C@H](CCCCN)NC(=O)CCSCc2cccc(c2)CSC[C@@H](C(N)=O)CC(=O)[C@@H]2CCCN2C(=O)[C@H](Cc2ccc(O)cc2)NC1=O [Compound 034] ([Mpa]K[dA][Trp(5-F)][Trp(5-F)][Aze]AY; linker 1-C via X2)
12 | 1 to 100 | 1 to 100 | C[C@@H]1NC(=O)[C@@H]2CCCN2C(=O)[C@H](Cc2cccc3ccccc23)NC(=O)[C@H](Cc2c[nH]c3ccc(F)cc23)NC(=O)CNC(=O)[C@H](CCCCN)NC(=O)CCSCc2cccc(c2)CSC[C@@H](C(N)=O)NC(=O)[C@@H]2CCCN2C(=O)[C@H](Cc2ccc(O)cc2)NC1=O [Compound 012] ([Mpa]KG[Trp(5-F)][1Nal]PAYPC-NH2; linker 1-10 via mXylylene)
13 | 100 to 1000 | 1000 to 12100 | COc1ccc(C[C@H]2C(=O)N3CCC[C@H]3C(=O)NCCSCc3cccc(c3)CSCCC(=O)N3CCC[C@H]3C(=O)N[C@H](C)C(=O)N[C@@H](Cc3c[nH]c4ccc(F)cc34)C(=O)N[C@@H](Cc3c[nH]c4ccc(F)cc34)C(=O)N3CCC[C@H]3C(=O)N[C@@H](C)C(=O)N2C)cc1 [Compound 053] (cyclo(A[NMeY](Me)P[X1]P[dA][Trp(5-F)][Trp(5-F)]P))
14 | 1 to 100 | 1 to 100 | C[C@@H]1NC(=O)[C@@H]2CCCN2C(=O)[C@H](Cc2c[nH]c3ccc(F)cc23)NC(=O)[C@H](Cc2c[nH]c3ccc(F)cc23)NC(=O)[C@@H](C)NC(=O)[C@H](CCCCN)NC(=O)CCSC/C=C/CSCCNC(=O)[C@]2(C)CCCN2C(=O)[C@H](Cc2ccc(O)cc2)NC1=O [Compound 045] (cyclo(AY[αMeP][X3]K[dA][Trp(5-F)][Trp(5-F)]P))
15 | 1 to 100 | 1 to 100 | C[C@@H]1NC(=O)CCSCc2cccc(c2)CSCCNC(=O)[C@@H]2CCCN2C(=O)[C@H](Cc2ccccc2)N(C)C(=O)[C@H](C)NC(=O)[C@@H]2CCCN2C(=O)[C@H](Cc2c[nH]c3ccc(F)cc23)NC(=O)[C@H](Cc2c[nH]c3ccc(F)cc23)NC(=O)[C@@H](C)NC1=O [Compound 063] (cyclo(A[NMeF]P[X1]A[dA][Trp(5-F)][Trp(5-F)]P))
16 | 1 to 100 | 1 to 100 | C[C@@H]1NC(=O)[C@@H]2CCCN2C(=O)[C@H](CCCc2ccccc2)NC(=O)[C@H](Cc2c[nH]c3ccc(F)cc23)NC(=O)CNC(=O)[C@H](CCCCN)NC(=O)CCSCc2cccc(c2)CSC[C@@H](C(N)=O)NC(=O)[C@@H]2CCCN2C(=O)[C@H](Cc2ccc(O)cc2)NC1=O [Compound 013] ([Mpa]KG[Trp(5-F)][hhPhe]PAYPC-NH2; linker 1-10 via mXylylene)
17 | 100 to 1000 | 1 to 100 | COc1ccc(C[C@@H]2NC(=O)[C@H](C)NC(=O)CN3CCCCOc4cccc(c4)C[C@H](NC(=O)CNC(=O)CCCCCNC(=O)c4ccc(cc4)C[C@@H](C(N)=O)NC(=O)[C@]4(C)CCCN4C2=O)C(=O)N[C@@H](Cc2c[nH]c4ccc(F)cc24)C3=O)cc1 [Compound 124]
18 | 1000 to 12100 | 100 to 1000 | COc1ccc(C[C@@H]2NC(=O)[C@H](C)NC(=O)CN3CCCC/C=C\CCCN(CC(=O)N[C@@H](Cc4c[nH]c5ccc(F)cc45)C3=O)C(=O)CNC(=O)CCCCCNC(=O)c3ccc(cc3)C[C@@H](C(N)=O)NC(=O)[C@]3(C)CCCN3C2=O)cc1 [Compound 122] ([Ahx]G[X4][Trp(5-F)][X5]AY(Me)[αMeP][Phe(4-COOH)]-NH2; staple (Z) 3-5; lactam N-9)
19 | 1 to 100 | 1000 to 12100 | C[C@@H]1NC(=O)[C@@H]2CCCN2C(=O)[C@H](Cc2c[nH]c3ccc(F)cc23)NC(=O)[C@H](Cc2c[nH]c3ccc(F)cc23)NC(=O)[C@@H](C)NC(=O)[C@@H]2CCCN2C(=O)CCSCc2cccc(c2)CSCCNC(=O)[C@@H]2CCCN2C(=O)[C@H](Cc2ccc(O)cc2)NC1=O [Compound 050] (cyclo(AYP[X1]P[dA][Trp(5-F)][Trp(5-F)]P))
20 | 100 to 1000 | 1 to 100 | C[C@@H]1NC(=O)CCSCc2cccc(c2)CSC[C@@H](C(N)=O)NC(=O)[C@@H]2CCCN2C(=O)[C@H](Cc2ccc(C(F)(F)F)cc2)NC(=O)[C@H](C)NC(=O)[C@@H]2CCCN2C(=O)[C@H](Cc2c[nH]c3ccc(F)cc23)NC(=O)[C@H](Cc2c[nH]c3ccc(F)cc23)NC(=O)[C@@H](C)NC1=O [Compound 084] ([Mpa]A[dA][Trp(5-F)][Trp(5-F)]PA[Phe(4-CF3)]PC-NH2; linker 1-10 via mXylylene)
21 | 100 to 1000 | 1 to 100 | COc1ccc(C[C@@H]2NC(=O)[C@H](C)NC(=O)CN3CCCCCCCCCN(CC(=O)N[C@@H](Cc4c[nH]c5ccc(F)cc45)C3=O)C(=O)CNC(=O)CCCCCNC(=O)c3ccc(cc3)C[C@@H](C(N)=O)NC(=O)[C@]3(C)CCCN3C2=O)cc1 [Compound 123]

— patent US11814445B2, “Cyclic polypeptides for PCSK9 inhibition” (Ra Pharmaceuticals, Inc., priority 2018, dated 2023)
